Laboratory results taken from PubChem BioAssay (NCI).
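In this assay, cells in 96-well plates receive the compound at five concentrations for 48 hours. Endpoints are linearly interpolated between the surrounding concentrations. GI50 = concentration required for 50% inhibition of growth. TGI marks complete inhibition of growth.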

Key:
Assay in all cases: NCI-60 cell line screen, 48 h
RPMI-8226 leukemia = tested on: RPMI-8226 leukemia
PC-3 prostate = tested on: PC-3 prostate
SK-MEL-5 melanoma = tested on: SK-MEL-5 melanoma
NCI-H522 lung = tested on: NCI-H522 lung
UACC-257 melanoma = tested on: UACC-257 melanoma
SNB-19 CNS = tested on: SNB-19 CNS
OVCAR-4 ovarian = tested on: OVCAR-4 ovarian
RXF 393 renal = tested on: RXF 393 renal
TK-10 renal = tested on: TK-10 renal
M14 melanoma = tested on: M14 melanoma
HCT-15 colon = tested on: HCT-15 colon
MDA-MB-231 breast = tested on: MDA-MB-231 breast
T-47D breast = tested on: T-47D breast
OVCAR-3 ovarian = tested on: OVCAR-3 ovarian
HOP-92 NSCLC = tested on: HOP-92 NSCLC
IGROV1 ovarian = tested on: IGROV1 ovarian
MALME-3M melanoma = tested on: MALME-3M melanoma
U251 CNS = tested on: U251 CNS
UO-31 renal = tested on: UO-31 renal
NCI-H460 lung = tested on: NCI-H460 lung
MOLT-4 leukemia = tested on: MOLT-4 leukemia
A498 renal = tested on: A498 renal
HT29 colon = tested on: HT29 colon
HCT-116 colon = tested on: HCT-116 colon
DU-145 prostate = tested on: DU-145 prostate
NCI-H23 lung = tested on: NCI-H23 lung
786-0 renal = tested on: 786-0 renal
UACC-62 melanoma = tested on: UACC-62 melanoma
EKVX NSCLC = tested on: EKVX NSCLC

## COc1cccc(/C=C/C(=O)c2ccc(OC)c(S(N)(=O)=O)c2)c1
RPMI-8226 leukemia
  GI50: 2.54 µM
  TGI: 7.24 µM
PC-3 prostate
  GI50: 5.25 µM
  TGI: 18.4 µM
SK-MEL-5 melanoma
  GI50: 5.23 µM
  TGI: 18 µM
NCI-H522 lung
  GI50: 2.48 µM
  TGI: 8.39 µM
UACC-257 melanoma
  GI50: 10.2 µM
  TGI: 22.5 µM
SNB-19 CNS
  GI50: 4.82 µM
  TGI: 17.2 µM
OVCAR-4 ovarian
  GI50: 4.87 µM
  TGI: 20.1 µM
RXF 393 renal
  GI50: 3.39 µM
  TGI: 15.1 µM
TK-10 renal
  GI50: 2.81 µM
  TGI: 13.1 µM
M14 melanoma
  GI50: 4.42 µM
  TGI: 17.7 µM
HCT-15 colon
  GI50: 1.27 µM
  TGI: 3.34 µM
MDA-MB-231 breast
  GI50: 3.8 µM
  TGI: 13.6 µM
T-47D breast
  GI50: 2.97 µM
  TGI: 14.2 µM
OVCAR-3 ovarian
  GI50: 2.9 µM
  TGI: 10.8 µM
HOP-92 NSCLC
  GI50: 6.37 µM
  TGI: 20.2 µM
IGROV1 ovarian
  GI50: 2.98 µM
  TGI: 12.5 µM
MALME-3M melanoma
  GI50: 12.4 µM
  TGI: 25.1 µM
U251 CNS
  GI50: 2.5 µM
  TGI: 9.83 µM
UO-31 renal
  GI50: 2.03 µM
  TGI: 9.93 µM
NCI-H460 lung
  GI50: 3.45 µM
  TGI: 13.8 µM
MOLT-4 leukemia
  GI50: 2.12 µM
  TGI: 5.16 µM
A498 renal
  GI50: 14.3 µM
  TGI: 28 µM
HT29 colon
  GI50: 1.91 µM
  TGI: 4.05 µM
HCT-116 colon
  GI50: 1.59 µM
  TGI: 3.31 µM
DU-145 prostate
  GI50: 5.73 µM
  TGI: 18.1 µM
NCI-H23 lung
  GI50: 4.66 µM
  TGI: 16.9 µM
786-0 renal
  GI50: 2.9 µM
  TGI: 11 µM
UACC-62 melanoma
  GI50: 4.16 µM
  TGI: 16.9 µM
EKVX NSCLC
  GI50: 8.05 µM
  TGI: 20.9 µM
